Consider five compounds from publication PMC12216609, “Inhibitors of eIF1A-ribosome interaction unveil uORF-dependent regulation of translation initiation and antitumor and antiviral effects” (The EMBO Journal, 2025).

Where “and” joins values, the source holds several entries; their conditions need not be identical. Equal entries are not always repeated.

In general, IC50 refers to the concentration that gives 50% inhibition.

Test [1] relates to uORF-bearing 5'UTR firefly reporters in HEK293T cells. In words: uORF reinitiation / leaky scanning firefly reporters. As to conditions: for averages of FF vs RL / FF vs RL / averages of FF vs RL 2 / FF vs RL 2: 95nt experiment; for averages of FF vs RL 2 / FF vs RL 2: block FF-2 (c113); for 95nt from uORF to main ORF experiment, minus 95nt, average (DMSO = 1): minus 95nt reporter.
From the text: (M) The reference and uORF-bearing reporters were transfected to HEK293T cells together with RL, which served to normalize translation efficiency. The reporter activities are represented as firefly vs RL; n ≥3 independent biological replicates, error bars represent SEM. *P < 0.05, **P < 0.01, Student t test. (N) Firefly Reporters (J) were transfected to HEK293T cells together with normalizing RL. […] Results are represented as firefly vs. RL normalized to DMSO in each biological replicate; n = 4, error bars represent SEM. *P < 0.05, **P < 0.01, Student t test.
In the first and second, we inserted an out-of-frame uAUG 46 or 95 nucleotides before the main ORF, respectively, followed by a downstream stop codon generating an uORF of 10 amino acids. In these constructs, the translation from the main ORF could be either by reinitiation or leaky scanning. In the third construct, this out of frame uAUG lacks a stop codon, causing initiation from the main ORF to exclusively occur via leaky scanning (Fig. 4L). These reporters were transfected into HEK293T cells together with RL luciferase reporter for normalizing transfection efficiency. […] We next examined these reporters in the presence of 1Ais.

Test [2] relates to CUG/GUG vs AUG start codon luciferase reporters in HEK293T cells. In words: Near-cognate AUG starting codon fidelity reporter assay (GUG, CUG vs AUG). As to conditions: for CUG vs AUG (%): CUG start codon reporter relative to AUG reporter (AUG = 100); for CUG vs AUG (%) / GUG vs AUG (%): single-experiment calculation; for GUG vs AUG (%): GUG start codon reporter relative to AUG reporter (AUG = 100). It is filed as cell-based. How it is done:
We next considered the importance of eIF1A in controlling start codon fidelity in yeast and mammalian cells (Martin-Marcos et al, [2011]; Martin-Marcos et al, [2017]; Sehrawat et al, [2019]; She et al, [2023]) and tested how inhibition of eIF1A by 1Ais affects the initiation from near-cognate AUG. The effect of 1Ais was analyzed using firefly luciferase reporters bearing either AUG (control), CUG, or GUG as the exclusive translation initiation sites. Co-transfected GFP reporter served as an internal control for transfection efficiency.
For the near-cognate AUG Starting codon fidelity reporter assay, HEK293T cells were transfected with 100 ng of the previously described luciferase reporter constructs driven either by AUG, CUG, and GUG (Tang et al, [2017]) together with GFP expressing plasmid (20 ng) as normalizing control. Luciferase and GFP levels were determined as described above.
Appendix Figure S1: (A) HEK293T cells were transfected with Luciferase reporter genes with either CUG or AUG as their exclusive starting codon. 6 hours after transfection, cells were exposed to 1Ais, and the luminescence from all constructs was measured after overnight incubation. Bars represent the ratio between luminescence from the AUG starting codon and CUG after normalization with co-transfected GFP; Error bars represent SEM, * denotes p<0.05 (T-test comparing to DMSO control), n=≥4 independent biological replicates.

The target in test [3] is T1, eIF1A-RPS10 interaction (Homo sapiens, UniProt P46783+P47813).
T1 construct: made in house; host or cells: E. coli BL21 (PRSFduet); unpurified lysate supernatant
Briefly: Split-Renilla luciferase eIF1A-RPS10 interaction screen, dose-response. As to conditions: Appendix Table S1; read-out: IC50 from the split RL screen. It is filed as biochemical. How it is done: While knockdown (KD) studies of eIF1A provided valuable insights into its role in mammalian cell translation (Sehrawat et al, [2019]), this approach presents several limitations. First, it fails to elucidate the functional significance of the opposing functions of eIF1A N- and C-terminal tails with respect to scanning and start codon fidelity. Second, the extended duration required for achieving efficient knockdown, 48–72 h, impairs our ability to differentiate between direct and indirect effects. To overcome these constraints, we set out to develop small-molecule inhibitors targeting eIF1A. Guided by structural and biochemical studies showing eIF1A binding to the small ribosomal subunit at the A-site and interacting directly with RPS10 through its N-terminal tail (Haimov et al, [2017]; Passmore et al, [2007]; Sehrawat et al, [2019]), our approach focused on disrupting the interaction between eIF1A and RPS10. […] The interaction between eIF1A and RPS10 brings the two parts together, leading to the reconstitution of the enzymatic activity (Haimov et al, [2017]). In this system, the spatial arrangement of the two RL parts is critical for the enzymatic activity, making it sensitive not only to direct interference with the interacting proteins but also to changes in the conformation of the fused proteins. In the eIF1A-RPS10 split-RL pair, the C-terminus of eIF1A is fused to N-RL (Fig. 1A), in order to maintain the NTT accessible to RPS10 binding. This pair was cloned and expressed in bacteria as recombinant proteins and used to screen a library of ~50,000 small molecules from diverse sources (Ashkenazi et al, [2017]).
eIF1A-ΔC-Renilla and RPS10-ΔN-Renilla were transformed into BL21 E. coli by heat shock transformation. A bacterial starter of 5 ml LB was incubated overnight at 37 °C and transferred into 1 L LB for incubation at 37 °C until OD ~ 0.5–0.7. Next, protein expression was induced with 0.5 mM IPTG, and bacterial cells were incubated overnight at 16 °C. Bacterial cell pellet was collected after centrifugation (3000 RPM, 15 min), resuspended in 20 ml TKE buffer (Tris 10 mM, KCl 100 mM, EDTA 0.1 mM), sonicated (bath sonicator, 24 cycles of 30 s) and centrifuged again (15000 RPM, 30 min). Supernatants were collected, analyzed for RL activity, and then used for high throughput drug screen (HTS) at the Weizmann G-INCPM HTS unit as described (Ashkenazi et al, [2017]). In addition to the standard controls of this protocol, the two parts of the split RL, without eIF1A or RPS10, were tested as controls. Selected compounds were purchased from Sigma-Aldrich and Enamine. Compound powders were resuspended in DMSO for a final concentration of 10 mM and stored at −20 °C.

For test [4], the system named is IRF7 5'UTR firefly luciferase reporter in HEK293T cells.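 Also: luciferase signal corrected by a co-transfected GFP reporter for transfection efficiency, read after overnight compound exposure, with Long and Short reporters differing in 5'UTR length.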
Method: For the effect on ribosomal scanning, we used two firefly luciferase reporter genes that differ in their 5'UTR length (Fig. 1C). […] Cells were transfected with these reporters along with a GFP reporter gene used to normalize transfection efficiency. After an overnight 1Ai or DMSO (vehicle control) exposure, luciferase and GFP expression were measured, and normalized activity was determined.
For the reference vs IRF7 5'UTR luciferase reporter assay, HEK239T cells in a 12-well plate were transfected with the previously described IRF7 5'UTR or reference firefly luciferase reported genes (Sehrawat et al, [2019]) (100 ng/well) together with GFP (20 ng/well) that served as an internal control by CaCl2 transfection. After 6 h, half of the growth medium was replaced with a medium containing the different compounds, reaching a final concentration of 20 µM. Twenty-four hours after transfection, transfection efficiency was evaluated using GFP fluorescence intensity (Cytation 5, ex/em: 470/525). Cells were harvested in 50 µL Reported lysis buffer (RLB) and put on a shaker for 10 min. From each well 5 µL were taken in duplicates and tested by luminometer.
[5] abbreviates: compound at 20uM (summary head).

T1 sequence (P47813 whole entry, one chain of several): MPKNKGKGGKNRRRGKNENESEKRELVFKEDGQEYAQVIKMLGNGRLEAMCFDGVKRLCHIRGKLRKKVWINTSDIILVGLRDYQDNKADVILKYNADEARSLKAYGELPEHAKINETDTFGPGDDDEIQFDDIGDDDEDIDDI

For `O=C1c2ccccc2NC(c2cc(O)c(O)c(Cl)c2)N1c1ccccc1` (centres unmarked) [1A-8214], the “averages of FF vs RL” value in test [1] (block FF-1 (c104), reporter minus46, DMSO 0.0248618) is 0.02612; in test [1] (block FF-1 (c104), reporter minus 95, DMSO 0.0251627) it was 0.01437; in test [1] (block FF-1 (c104), reporter ref, DMSO 0.0298915) it was 0.04961; in test [1] (block FF-1 (c131), reporter minus46, DMSO 0.180889) it was 0.2096; in test [1] (block FF-1 (c131), reporter minus 95, DMSO 0.459566), 0.4822; in test [1] (block FF-1 (c131), reporter ref, DMSO 0.345569) it was 0.2779. In addition, the “FF vs RL” value is 2.94E-02 and 2.28E-02 in test [1] (block FF-1 (c104), reporter minus 46, DMSO 2.74E-02, 2.23E-02); 1.20E-02 and 1.67E-02 in test [1] (block FF-1 (c104), reporter minus 46 plus 50, DMSO 2.94E-02, 2.09E-02); 6.51E-02 and 3.41E-02 in test [1] (block FF-1 (c104), reporter reference, DMSO 2.79E-02, 3.19E-02); 0.2074 and 0.2118 in test [1] (block FF-1 (c131), reporter minus 46, DMSO 0.17626, 0.185518); 0.464 and 0.5005 in test [1] (block FF-1 (c131), reporter minus 46 plus 50, DMSO 0.437858, 0.481275); 0.281 and 0.2748 in test [1] (block FF-1 (c131), reporter reference, DMSO 0.39984, 0.291299). In addition, the “averages of FF vs RL 2” value is listed as 0.04195 in test [1] (reporter minus46, DMSO 0.0506669); 0.01783 in test [1] (reporter minus 95, DMSO 0.0221428); 0.05624 in test [1] (reporter ref, DMSO 0.0383109). The “FF vs RL 2” value is 4.79E-02 and 3.60E-02 in test [1] (reporter minus 46, DMSO 3.43E-02, 5.07E-02); 1.96E-02 and 1.61E-02 in test [1] (reporter minus 46 plus 50, DMSO 3.05E-02, 1.38E-02); 6.80E-02 and 4.45E-02 in test [1] (reporter reference, DMSO 3.69E-02, 3.97E-02). In addition, the “reporter activity norm to DMSO, minus46” value in test [1] (minus46 reporter, 95nt from uORF to main ORF experiment, Figure 4N source data, replicate experiments, DMSO = 1) is 0.8043 and 1.051 and 0.8279. Besides, in test [1] (minus46 reporter), the “95nt from uORF to main ORF experiment, minus46, average (DMSO = 1)” value is recorded as 0.8942. Moreover, in test [1] (minus 95 (nt) reporter, 95nt from uORF to main ORF experiment, Figure 4N source data, replicate experiments, DMSO = 1), the “reporter activity norm to DMSO, minus 95” value was 1.049 and 0.5709 and 0.8051. The “95nt from uORF to main ORF experiment, minus 95nt, average (DMSO = 1)” value in test [1] is given as 0.8085. The “reporter activity norm to DMSO, ref” value in test [1] (ref reporter, 95nt from uORF to main ORF experiment, Figure 4N source data, replicate experiments, DMSO = 1) was 1.159 and 1.66 and 1.468. Also, the “95nt from uORF to main ORF experiment, ref, average (DMSO = 1)” value in test [1] (ref reporter) is reported as 1.429.

On to `O=C(Nc1nc(-c2c[nH]c3ccccc23)cs1)c1cc(=O)[nH]c2ccccc12` [compound 403], for which, in test [2] (compound at 5uM (summary head)), the “CUG vs AUG (%)” value is listed as 8.469% and the “GUG vs AUG (%)” value is given as 1.79%.

For the compound `CNc1nc(-c2cc(C)n(C)c2C)cs1` [1Ai-0153], the “GUG vs AUG data (%)” value in test [2] (compound at 20uM, individual repeat) was 1.78% and 1.33% and 1.95% and 1.92%. In addition, in test [2] (compound at 20uM, summary average of repeats, DMSO control average […]), the “GUG vs AUG (%) Average” value is given as 1.74%. For the same compound, in test [3], the IC50 was 27 µM. Besides, the “LONG (summary - All), normalized to DMSO” value in test [4] (Long reporter, 20 µM, individual replicates, outliers excluded, DMSO = 1) was 0.73 and 0.87 and 1.53 and 0.96 and 1.14. For the same compound, in test [4] (Short reporter, 20 µM, individual replicates, outliers excluded, DMSO = 1), the “SHORT (summary - All), normalized to DMSO” value was 0.72 and 0.98 and 1.54 and 1.66 and 1.69 and 1.65. Moreover, the “Long 5'UTR reporter luciferase activity, normalized to DMSO (=1), single replicates” value in test [4] (compound at 20 µM, left data block (Long), source data of Fig 1C) was 0.734 and 0.8747 and 1.529 and 0.9608 and 2.673 and 1.141. Moreover, in test [4] (summary - All, 20 µM), the “average ( long vs short ratio)” value came out at 0.762.

On to `CNc1nc(-c2cc(C)n(C)c2C)cs1` [compound 153], for which, in test [2] (setting [5]), the “CUG vs AUG (%)” value was 5.937% and the “GUG vs AUG (%)” value is on record as 1.586%.

For `O=C(COc1ccccc1[N+](=O)[O-])NCc1ccc(-c2ccc(Br)cc2)o1` [1A-4700], the “firefly/Renilla normalized to DMSO, minus46 reporter” value in test [1] (95nt from uORF to main ORF experiment summary, experiment 240919, reporter minus46, DMSO = 1) is 0.3368 and 0.3707. For the same compound, the “firefly/Renilla normalized to DMSO, minus 95nt reporter” value in test [1] (95nt from uORF to main ORF experiment summary, experiment 240919, reporter minus 95nt, DMSO = 1) is 1.123 and 1.106. In addition, the “firefly/Renilla normalized to DMSO, ref reporter” value in test [1] (95nt from uORF to main ORF experiment summary, experiment 240919, reporter ref, DMSO = 1) was 0.8256 and 0.6094. Also, the “95nt from uORF to main ORF experiment, minus46, average (DMSO = 1)” value in test [1] (minus46 reporter) was determined as 0.3537. Also, the “95nt from uORF to main ORF experiment, minus 95nt, average (DMSO = 1)” value in test [1] turned out to be 1.115. Further, the “95nt from uORF to main ORF experiment, ref, average (DMSO = 1)” value in test [1] (ref reporter) amounted to 0.7175.
